# Assay results published in BindingDB's records for doi:10.1016/s0960-894x(99)00095-5 (Warner-Lambert, 1999).
# Target: Trypsin (Bos taurus)
# Experiment: In vitro for inhibition of purified bovine trypsin.
row,IC50,SMILES
1,> 200 µM,"COc1ccc(S(=O)(=O)N(C)c2nc3ccccc3c(=O)s2)cc1 [4-Methoxy-N-methyl-N-(4-oxo-4H-benzo[d][1,3]thiazin-2-yl)-benzenesulfonamide]"
2,5.83 µM,"CN(c1nc2ccccc2c(=O)o1)S(=O)(=O)c1ccc(C(C)(C)C)cc1 [4-tert-Butyl-N-methyl-N-(4-oxo-4H-benzo[d][1,3]oxazin-2-yl)-benzenesulfonamide]"
3,> 100 µM,"CN(c1nc2ccccc2c(=O)o1)S(=O)(=O)c1ccc([N+](=O)[O-])cc1 [N-Methyl-4-nitro-N-(4-oxo-4H-benzo[d][1,3]oxazin-2-yl)-benzenesulfonamide]"

# More lines, now with the values behind:
row,SMILES,IC50
1,"Cc1ccc(S(=O)(=O)N(C)c2nc3ccccc3c(=O)o2)cc1 [4,N-Dimethyl-N-(4-oxo-4H-benzo[d][1,3]oxazin-2-yl)-benzenesulfonamide]",4.5 µM
2,"CN(c1nc2ccccc2c(=O)o1)S(=O)(=O)c1ccc(Cl)c(Cl)c1 [3,4-Dichloro-N-methyl-N-(4-oxo-4H-benzo[d][1,3]oxazin-2-yl)-benzenesulfonamide]",8.3 µM
3,"CN(c1nc2ccccc2c(=O)o1)S(=O)(=O)c1ccc(Cl)cc1 [4-Chloro-N-methyl-N-(4-oxo-4H-benzo[d][1,3]oxazin-2-yl)-benzenesulfonamide]",1.3 µM
